In the NIST ThermoML archive (doi:10.1016/j.jct.2008.08.013):
± gives the expanded uncertainty stated by the source.

Experiment: xn = mol fraction of the nth substance listed
Settings: 101 kPa, Liquid, Vibrating tube method

Nc1ccccc1 [aniline] + ClCCl
mass density [kg/m3]
Settings	288.15 K	293.15 K	298.15 K	303.15 K
x2 = 0.0218	1030.69 ± 0.1	1025.78 ± 0.1	1021.79 ± 0.1	1017.43 ± 0.09
x2 = 0.1003	1048.42 ± 0.1	1043.36 ± 0.1	1039.19 ± 0.1	1034.68 ± 0.1
x2 = 0.2004	1072.39 ± 0.11	1067.17 ± 0.11	1062.72 ± 0.1	1057.97 ± 0.1
x2 = 0.2507	1085.02 ± 0.11	1079.67 ± 0.11	1075.06 ± 0.11	1070.21 ± 0.1
x2 = 0.2992	1097.6 ± 0.11	1092.14 ± 0.11	1087.38 ± 0.11	1082.37 ± 0.11
x2 = 0.3502	1111.25 ± 0.12	1105.64 ± 0.11	1100.68 ± 0.11	1095.52 ± 0.11
x2 = 0.3985	1124.6 ± 0.12	1118.83 ± 0.12	1113.68 ± 0.12	1108.38 ± 0.11
x2 = 0.4998	1153.99 ± 0.13	1147.9 ± 0.13	1142.28 ± 0.12	1136.65 ± 0.12
x2 = 0.5529	1170.24 ± 0.13	1164 ± 0.13	1158.09 ± 0.13	1152.21 ± 0.13
x2 = 0.6023	1185.94 ± 0.14	1179.46 ± 0.14	1173.3 ± 0.13	1167.19 ± 0.13
x2 = 0.6504	1201.8 ± 0.14	1195.11 ± 0.14	1188.66 ± 0.14	1182.34 ± 0.13
x2 = 0.6992	1218.48 ± 0.15	1211.56 ± 0.14	1204.8 ± 0.14	1198.22 ± 0.14
x2 = 0.7506	1236.69 ± 0.15	1229.48 ± 0.15	1222.36 ± 0.15	1215.59 ± 0.14
x2 = 0.8003	1254.94 ± 0.16	1247.49 ± 0.16	1239.98 ± 0.15	1232.77 ± 0.15
x2 = 0.8997	1293.47 ± 0.17	1285.36 ± 0.17	1277.01 ± 0.16	1269.11 ± 0.16
x2 = 0.9298	1305.66 ± 0.17	1297.3 ± 0.17	1288.69 ± 0.17	1280.69 ± 0.16
x2 = 0.9505	1314.14 ± 0.18	1305.64 ± 0.17	1296.8 ± 0.17	1288.52 ± 0.17
x2 = 0.9799	1326.37 ± 0.18	1317.62 ± 0.18	1308.49 ± 0.17	1299.98 ± 0.17

ClCCl [dichloromethane] + O=[N+]([O-])c1ccccc1
mass density [kg/m3]
Settings	288.15 K	293.15 K	298.15 K	303.15 K
x1 = 0.021	1213.16 ± 0.13	1204.27 ± 0.13	1199.65 ± 0.12	1195.1 ± 0.12
x1 = 0.1053	1219.99 ± 0.13	1211.21 ± 0.13	1206.52 ± 0.12	1201.87 ± 0.12
x1 = 0.2003	1228.35 ± 0.14	1219.76 ± 0.13	1214.95 ± 0.13	1210.13 ± 0.13
x1 = 0.2499	1233.02 ± 0.14	1224.51 ± 0.13	1219.62 ± 0.13	1214.69 ± 0.13
x1 = 0.3003	1238.01 ± 0.14	1229.63 ± 0.14	1224.61 ± 0.13	1219.55 ± 0.13
x1 = 0.3521	1243.35 ± 0.14	1235.09 ± 0.14	1229.95 ± 0.13	1224.73 ± 0.13
x1 = 0.4025	1248.78 ± 0.14	1240.64 ± 0.14	1235.37 ± 0.14	1229.98 ± 0.13
x1 = 0.4492	1254.01 ± 0.15	1245.99 ± 0.14	1240.56 ± 0.14	1235.01 ± 0.14
x1 = 0.4975	1259.65 ± 0.15	1251.71 ± 0.14	1246.14 ± 0.14	1240.37 ± 0.14
x1 = 0.5512	1266.13 ± 0.15	1258.32 ± 0.15	1252.51 ± 0.14	1246.51 ± 0.14
x1 = 0.5995	1272.2 ± 0.15	1264.47 ± 0.15	1258.48 ± 0.15	1252.21 ± 0.14
x1 = 0.6495	1278.7 ± 0.16	1271.04 ± 0.15	1264.8 ± 0.15	1258.26 ± 0.15
x1 = 0.6999	1285.45 ± 0.16	1277.91 ± 0.16	1271.39 ± 0.15	1264.55 ± 0.15
x1 = 0.7496	1292.42 ± 0.16	1284.93 ± 0.16	1278.12 ± 0.16	1270.91 ± 0.15
x1 = 0.799	1299.65 ± 0.16	1292.18 ± 0.16	1285 ± 0.16	1277.46 ± 0.16
x1 = 0.8501	1307.44 ± 0.17	1299.97 ± 0.17	1292.47 ± 0.16	1284.49 ± 0.16
x1 = 0.8975	1315.12 ± 0.17	1307.6 ± 0.17	1299.69 ± 0.17	1291.27 ± 0.16
x1 = 0.9798	1329.58 ± 0.18	1321.91 ± 0.17	1313.24 ± 0.17	1303.98 ± 0.17
